± gives the expanded uncertainty stated by the source.
Details: Liquid, Ebulliometric method (Recirculating still)

## C=C(C)C(C)C [2,3-dimethyl-1-butene]
  Normal boiling temperature: 55.73 ± 0.2 °C

## CCC(C)C [2-methylbutane]
  Normal boiling temperature: 28.00 ± 0.2 °C

## CC(C)=C(C)C [2,3-dimethyl-2-butene]
  Normal boiling temperature: 73.00 ± 0.21 °C

## CCCCCCC [heptane]
370.27 K
  vapor or sublimation pressure: 97.43 ± 0.14 kPa
370.74 K
  vapor or sublimation pressure: 98.52 ± 0.15 kPa
370.93 K
  vapor or sublimation pressure: 99.39 ± 0.17 kPa
371.13 K
  vapor or sublimation pressure: 99.78 ± 0.16 kPa
371.52 K
  vapor or sublimation pressure: 101.07 ± 0.17 kPa
372.25 K
  vapor or sublimation pressure: 103.43 ± 0.11 kPa
372.36 K
  vapor or sublimation pressure: 103.56 ± 0.17 kPa
372.56 K
  vapor or sublimation pressure: 104.41 ± 0.15 kPa
372.76 K
  vapor or sublimation pressure: 104.67 ± 0.17 kPa
372.97 K
  vapor or sublimation pressure: 105.83 ± 0.19 kPa
373.17 K
  vapor or sublimation pressure: 106.29 ± 0.14 kPa
373.48 K
  vapor or sublimation pressure: 107.02 ± 0.14 kPa
  Normal boiling temperature: 98.49 ± 0.2 °C

## c1ccsc1 [thiophene]
  Normal boiling temperature: 84.27 ± 0.2 °C

— the NIST ThermoML archive (doi:10.1016/j.fluid.2011.11.020)
